Assay results as given in US8093210B2, “Treatment of sepsis with 5-ethyl-1-phenyl-2(1H)-pyridone” (Solanan, Inc., priority 2008, dated 2012).
Values after ≈ are worked out from the molar mass of the structure shown. Values joined by “and” are separate entries in the source; they are usually repeats but may differ in a detail not shown here. Equal entries are not always repeated. Where two headings read alike, the source gives them in different places.

Columns and labels:
IL-6 = test: Serum IL-6 (ELISA) in LPS/D-galactosamine model of sepsis (Example 5); format: in vivo, mice; conditions: 90 minutes after the treatment
Method: (§1) Mice were treated simultaneously with LPS (10 μg/kg) and D-galactosamine (600 mg/kg) (Galanos C, Freudenberg M A, Reutter W. […] They were anesthetized with halothane and blood was collected at different times by cardiac puncture and centrifuged to separate serum. The serum levels of alanine transaminase (ALT) and aspartate transaminase (AST) were measured by a commercial diagnostic company (Idexx Laboratories). The serum levels of tumor necrosis factor-alpha (TNF-α), interleukin-6 (IL-6) and interleukin-12 (IL-12) were determined by commercially available mouse enzyme-linked immunosorbent assay (ELISA) kits (BD BioSciences, San Jose, Calif.).
(§2) The methodology utilized in Example 4 was used to measure and analyze the serum enzyme data for statistical significance. The serum levels of proinflammatory cytokines between the 5-EPP treated and saline control groups were analyzed for statistical significance by one-way ANOVA and a Tukey's multiple comparison test (Prism™ for Windows 4.02, Graphpad Software, Inc. San Diego, Calif.).

[1] = Solubility in water and isotonic saline (Example 9); format: physicochemical; conditions: for solubility: thermodynamic from solid, room temperature, colorless, clear solution, read-out: solubility (soluble at)
Method: All solutions were prepared by weighing the chemical, transferring his solid into a polypropylene tube or polystyrene tube and then adding either water or saline to the final desired volume. The compound was dissolved by intermittent mixing with a vortex mixer, gentle heating in a warm water bath (40-45° C.) and sonication (3×15 min.).

[2] = test system: LPS/D-galactosamine-septic shock; test: Lethal LPS/D-galactosamine septic shock in rats (Example 2); format: in vivo, Juvenile Sprague-Dawley rats; conditions: monitored for 66 hours
Method: The methodology utilized in Example 1 was used to treat rats. Juvenile Sprague-Dawley rats were induced with LPS/D-galactosamine-septic shock. The animals were monitored for 66 hours after treatment and the resulting data analyzed by the same statistical tests and criteria as in Example 1.

[3] = test system: LPS/D-galactosamine-induced mortality; test: LPS/D-galactosamine-induced mortality in mice, survival curve (Example 7, FIG. 2); format: in vivo; conditions: LPS 20 μg/kg + D-galactosamine 600 mg/kg, monitored 4 days
Method: The effects of treatment with 5-EPP on LPS/D-galactosamine-induced mortality was investigated in mice. At least 10 mice in each group were challenged with either a lethal dose of LPS (20 μg/kg) and D-galactosamine (600 mg/kg) or the same dose of LPS/D-galactosamine+different doses of 5-EPP by intraperitoneal route and the morality in each group was monitored at different times for 4 days in order to evaluate the protective effects of 5-EPP against LPS/D-galactosamine-induced mortality.
However, the survival of mice treated with 25 mg/kg of 5-EPP was 45% and 100% at 50 mg/kg, 100 mg/kg and 200 mg/kg with p≦0.0001 as determined by Chi square test.

TNF-α = test: Serum TNF-α (ELISA) in LPS/D-galactosamine model of sepsis (Example 5); format: in vivo, mice; conditions: 90 minutes after the treatment
Method: as §1, §2

[4] = pH of 20 mg/mL solutions (Example 9); format: physicochemical
Method: The pH of two freshly prepared solutions of the compound each at 20 mg/mL concentration was measured with a calibrated Mettler MP-220 pH meter equipped with a pH electrode (model 413). The pH of the solution made in water averaged 7.4 as compared to solutions made in isotonic saline in which the pH averaged 6.21 using triplicate samples in each case, as shown in the table below.

[5] = test system: LPS/D-galactosamine model of septic shock; test: Lethal LPS/D-galactosamine-induced shock, survival of mice (Example 1); format: in vivo; conditions: for mortality: 72 hrs post-treatment
Method: Mice were treated with 5-EPP after inducing shock with lipopolysaccharide (LPS) pursuant to established models for lethal LPS-induced shock. The method described by Galanos C, Freudenberg M A, Reutter W. Proc Natl Acad Sci USA. 1979 November; 76 (11):5939-43 was followed. The survival of the mice after treatment with various doses of the agent in LPS/D-galactosamine model of septic shock was monitored. All agents were injected simultaneously via the intraperitoneal route and the response compared to a placebo agent (saline).
All data were analyzed by Fisher's exact test (Prism™ for Window 4.02, Graphpad Software, Inc., San Diego, Calif.). A value of P<0.05 was considered to be statistically significant.
Table 1 clearly illustrates that 5-ethyl-1-phenyl-2(1H)-pyridone (5-EPP) protected mice from lethal LPS/D-galactosamine-induced shock at 72 hrs post-treatment.

LPS-induced septic shock = test: Lethal shock caused by LPS alone, survival of mice (Example 3); format: in vivo; conditions: LPS alone (30 mg/kg), 100 mg/kg i.p., monitored for 4 days
Method: The survival of mice subjected to treatment of the agent and LPS alone pursuant to the methodology of Galanos C, Freudenberg M A, Reutter W. Proc Natl Acad Sci USA. 1979 November; 76 (11)5939-43) was observed. This procedure is believed to evoke a pathophysiological response which is more like that observed during septic shock than that caused by the LPS and galactosamine.
All agents were injected simultaneously via the intraperitoneal route and the response compared to a placebo agent (saline).
The animals were monitored for 4 days after treatment and the resulting data analyzed by the same Fisher exact test and criteria as before.

Male Swiss-Webster mice = test: LD50 estimate after a single intraperitoneal dose (Example 8); format: in vivo
Method: (§3) Male Swiss-Webster mice were obtained from standard commercial sources at 7 weeks of age, housed in the laboratory for at least 1 week prior to use and were provided standard mouse chow and water ad libitum. Animals were subjected to a 12 hour/12 hour light-dark cycle.
(§4) Six groups of mice were injected via the intraperitoneal route with 5-EPP (250-500 mg/kg) dissolved in sterile isotonic saline, immediately replaced in their cages and then observed carefully for the next 6-8 hours. A LD50 value was estimated from the mortality data by a non-linear curve fitting program (Prism™ for Windows 4.02).

[6] = as above; format: in vivo; conditions: male, Swiss-Webster, mouse, in vivo, ip; mice; single intraperitoneal dose; sigmoidal curve fit, R^2=0.949
Method: as §3, §4

[7] = DI Water, final 5-EPP 20.0 mg/mL
[8] = Isotonic saline, final 5-EPP 20.0 mg/mL
[9] = Isotonic saline, final 5-EPP 20.1 mg/mL

## CCc1ccc(=O)n(-c2ccccc2)c1 [5-EPP, 5-ethyl-1-phenyl-2-(1H)-pyridone]
IL-6; 50 mg/kg
  serum level of IL-6: 9,980 ± 564 pg/mL
IL-6; 100 mg/kg
  serum level of IL-6: 5,111 ± 343 pg/mL
IL-6; 200 mg/kg
  serum level of IL-6: 3,578 ± 421 pg/mL
[1]; [7]
  Results (solubility): soluble
[1]; [8]
  Results (solubility): soluble
[1]; [9]
  Results (solubility): soluble
[1]; saline or isotonic, saline
  solubility: 20 mg/mL (≈ 100 mM)
[1]; standing at room temperature overnight or following refrigeration
  precipitation of dissolved compound: no precipitation was observed
[1]; water
  solubility: 20 mg/mL (≈ 100 mM)
[1]; water or saline
  concentrations that do not completely dissolve: ≥ 30000 µg/mL
[2]; 75 mg/kg
  mortality: 14.3% mortality
[2]; 200 mg/kg
  mortality: 12.5% mortality
[3]; 25 mg/kg ip
  survival: 45%
[3]; 50 mg/kg ip
  survival: 100%
[3]; 100 mg/kg ip
  survival: 100%
[3]; 200 mg/kg ip
  survival: 100%
TNF-α; 12.5 mg/kg
  serum level of TNF-α: 5,220 ± 1280 pg/mL
TNF-α; 25 mg/kg
  serum level of TNF-α: 2,780 ± 481 pg/mL
TNF-α; 50 mg/kg
  serum level of TNF-α: 576 ± 79 pg/mL
TNF-α; 100 mg/kg
  serum level of TNF-α: 340 ± 34 pg/mL
[4]; 20 mg/mL in isotonic saline
  pH of the solution, average: 6.21
[4]; 20 mg/mL in water
  pH of the solution, average: 7.4
[4]; [7]
  pH: 7.29 and 7.24
[4]; [8]
  pH: 6.13
[4]; [9]
  pH: 6.20
[5]; 25 mg/kg i.p. simultaneously with LPS/D-galactosamine
  mortality: 30% mortality
[5]; 50 mg/kg i.p. simultaneously with LPS/D-galactosamine
  mortality: 5% mortality
[5]; 100 mg/kg i.p. simultaneously with LPS/D-galactosamine
  mortality: 0% mortality
[5]; lowest dose (25 mg/kg)
  onset of lethal shock: delay of the onset of lethal shock
LPS-induced septic shock
  mortality: 30% mortality
Male Swiss-Webster mice; highest doses (450-500 mg/kg) ip
  time to ataxia, loss of the righting reflex and labored breathing: ≤ 5 min
Male Swiss-Webster mice; intraperitoneal route
  absorption and distribution, suggested by rapid onset of symptoms: rapidly absorbed and distributed across the blood-brain barrier
Male Swiss-Webster mice; lower doses ip
  time over which symptoms gradually lessened until animals appeared unaffected: 1 to 2 h
Male Swiss-Webster mice; single intraperitoneal dose, raw mortality data
  LD100: 450 to 500 mg/kg
[6]
  LD50: 380 mg/kg
